# Source: article PMC12675575, “A BRET biosensor for measuring uncompetitive engagement of PRMT5 complexes in cells” (Nature Communications, 2025)
# Where “and” joins values, the source holds several entries; their conditions need not be identical. Equal values may be shown once.
# Key:
# PRMT5-NL = target: T1, PRMT5-NL (Homo sapiens, UniProt O14744); assay: CBH-002 affinity curve, HEK293, PRMT5-NL fusion with empty carrier DNA (no WDR77); assay type: cell-based; design: unit not given here; conditions: Figure S2B NL-PRMT5, log([CBH-002])
# T1 construct: host or cells: HEK293
# T1 sequence (O14744 whole entry, the tested form may be a part): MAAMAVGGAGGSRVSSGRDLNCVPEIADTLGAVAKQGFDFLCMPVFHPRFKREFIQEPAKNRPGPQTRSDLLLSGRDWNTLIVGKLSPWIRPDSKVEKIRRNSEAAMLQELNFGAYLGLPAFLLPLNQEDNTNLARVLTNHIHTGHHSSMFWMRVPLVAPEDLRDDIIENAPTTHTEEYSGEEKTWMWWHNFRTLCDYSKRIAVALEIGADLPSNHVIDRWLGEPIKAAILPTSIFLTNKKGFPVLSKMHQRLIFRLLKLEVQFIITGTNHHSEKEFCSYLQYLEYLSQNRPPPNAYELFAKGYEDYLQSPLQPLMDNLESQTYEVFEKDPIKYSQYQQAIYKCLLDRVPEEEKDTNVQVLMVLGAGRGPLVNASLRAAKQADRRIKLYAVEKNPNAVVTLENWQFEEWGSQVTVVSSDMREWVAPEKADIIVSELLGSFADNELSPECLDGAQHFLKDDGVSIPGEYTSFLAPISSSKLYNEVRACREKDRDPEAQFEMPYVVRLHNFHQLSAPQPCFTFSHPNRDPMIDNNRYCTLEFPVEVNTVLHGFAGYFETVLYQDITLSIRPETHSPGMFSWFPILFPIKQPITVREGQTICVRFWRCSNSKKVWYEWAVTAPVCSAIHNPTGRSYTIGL
# Procedure: (§1) HEK293 cells (ATCC) were cultured in DMEM (Thermo Fisher) + 10% (v/v) FBS (Seredigm), and HCT116 cells (Horizon Discovery, #PAR-034 and #R02-033) were cultured in McCoy’s 5A (Thermo Fisher) + 10% FBS, with incubation in a humidified, 37 °C/5% CO2 incubator. Cells were split 1–3 days prior to performing experiments and used at roughly 80% confluency. […] Cells were transfected according to the manufacturer’s protocol using FuGENE HD (Promega). NanoLuc fusion DNA was diluted into Transfection Carrier DNA (Promega) in Opti-MEM at a ratio of 1:9 (mass/mass), and FuGENE HD was added at a ratio of 1:3 (μg DNA:μL lipid). For experiments using WDR77, untagged WDR77 DNA (Promega) was used in place of Carrier DNA. Formed complexes were combined with cells resuspended to a density of 2 × 10^5 cells/mL in Opti-MEM + 1% FBS at a ratio of 1:20 (vol:vol). Cells were plated into a flask and incubated at 37 °C in a humidified 5% CO2 atmosphere for 18–24 h, before being lifted and seeded into 96-well non-binding surface-treated plates (Corning). Cells were seeded at a density of 2 × 10^5 cells/mL in Opti-MEM + 1% FBS in 100 μL (96-well). The BRET probe CBH-002 was prepared first as a 100× stock in 100% DMSO (Sigma) and then diluted to a 20× stock in NanoBRET Tracer Dilution buffer (Promega). Test compounds were prepared as 1000× stocks in 100% DMSO and diluted to 10× stocks in Opti-MEM to prepare working stocks. […] NanoBRET Complete 3x Substrate was prepared by combining Nano-Glo Substrate and Extracellular NanoLuc Inhibitor in Opti-MEM, according to the manufacturer’s protocol (Promega). NanoBRET Complete 3× Substrate was added to cells and plates were measured on either a PheraSTAR FSX equipped with 450 nm (donor) and 610 nm (acceptor) filters, or a GloMAX Discover equipped with 450/8 nm BP (donor) and 600 nm LP (acceptor) filters, using a 0.3 s integration time.
# (§2) EC50 values were obtained by fitting the BRET probe and compound affinity curves to a sigmoidal four-parameter fit model in Graphpad Prism:1 Y=Ymin+Ymax−Ymin/1+10^LogEC50−Xh where h is the Hill Slope.
# BRD9 = target: T2, BRD9 (Homo sapiens, UniProt Q9H8M2); assay: CBH-002 affinity curve, HEK293, NL-BRD9 fusion (nuclear control); assay type: cell-based; design: BRET, CBH-002 + DMSO / BRET, CBH-002 + GSK3326595: unit not given here; conditions: for BRET, CBH-002 + DMSO / BRET, CBH-002 + GSK3326595: Figure S2F NL-BRD9, log([CBH-002])
# T2 construct: host or cells: HEK293
# T2 sequence (Q9H8M2 1-597): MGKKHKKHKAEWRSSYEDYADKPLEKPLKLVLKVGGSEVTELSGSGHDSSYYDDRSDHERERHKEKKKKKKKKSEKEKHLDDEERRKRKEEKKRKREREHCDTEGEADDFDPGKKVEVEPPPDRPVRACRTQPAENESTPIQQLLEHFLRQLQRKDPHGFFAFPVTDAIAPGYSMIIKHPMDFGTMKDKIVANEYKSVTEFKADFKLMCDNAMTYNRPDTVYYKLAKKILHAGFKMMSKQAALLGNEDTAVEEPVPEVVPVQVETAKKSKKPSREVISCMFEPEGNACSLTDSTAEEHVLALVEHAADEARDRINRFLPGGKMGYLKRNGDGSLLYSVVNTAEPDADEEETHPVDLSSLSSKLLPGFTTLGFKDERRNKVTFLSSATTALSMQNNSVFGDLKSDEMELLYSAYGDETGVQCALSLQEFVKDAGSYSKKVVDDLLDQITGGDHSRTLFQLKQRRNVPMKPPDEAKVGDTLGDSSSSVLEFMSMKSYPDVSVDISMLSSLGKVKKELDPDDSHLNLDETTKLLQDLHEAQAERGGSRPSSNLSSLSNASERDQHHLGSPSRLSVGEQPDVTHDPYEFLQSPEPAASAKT
# Procedure: as §1, §2
compound,measurement,setting,value
O=C(CCc1ccc2n1[B-](F)(F)[N+]1=C(c3ccc[nH]3)C=CC1=C2)NCCCCC(=O)N1CCC(Nc2cc(C(=O)NC[C@H](O)CN3CCc4ccccc4C3)ncn2)CC1 [CBH-002],"BRET, CBH-002 + DMSO",PRMT5-NL; uM -1.03342,12.5404 and 13.4407 and 13.3166
same,"BRET, CBH-002 + GSK3326595",PRMT5-NL; uM -1.03342,8.441 and 8.865 and 8.461
same,"BRET, CBH-002 + DMSO",PRMT5-NL; uM -1.51055,10.7353 and 11.0633 and 11.2052
same,"BRET, CBH-002 + GSK3326595",PRMT5-NL; uM -1.51055,5.349 and 5.866 and 6.032
same,"BRET, CBH-002 + DMSO",PRMT5-NL; uM -1.98767,8.8779 and 8.604 and 8.921
same,"BRET, CBH-002 + GSK3326595",PRMT5-NL; uM -1.98767,5.328 and 5.307 and 5.5055
same,"BRET, CBH-002 + DMSO",PRMT5-NL; uM -2.46479,7.2471 and 8.258 and 8.573
same,"BRET, CBH-002 + GSK3326595",PRMT5-NL; uM -2.46479,3.609 and 3.848 and 3.767
same,"BRET, CBH-002 + DMSO",PRMT5-NL; uM -2.94191,6.802 and 7.308 and 6.803
same,"BRET, CBH-002 + GSK3326595",PRMT5-NL; uM -2.94191,2.864 and 2.956 and 2.6211
same,"BRET, CBH-002 + DMSO",PRMT5-NL; uM -3.41903,6.051 and 5.88 and 6.095
same,"BRET, CBH-002 + GSK3326595",PRMT5-NL; uM -3.41903,2.538 and 2.522 and 2.796
same,"BRET, CBH-002 + DMSO",PRMT5-NL; uM -3.89615,5.285 and 4.8415 and 5.242
same,"BRET, CBH-002 + GSK3326595",PRMT5-NL; uM -3.89615,2.512 and 2.541 and 2.599
same,"BRET, CBH-002 + DMSO",BRD9; uM 0.04576,1.963 and 1.6096 and 1.753
same,"BRET, CBH-002 + GSK3326595",BRD9; uM 0.04576,1.941 and 1.894 and 1.502
same,"BRET, CBH-002 + DMSO",BRD9; uM 0.52288,4.746 and 4.673 and 4.368
same,"BRET, CBH-002 + GSK3326595",BRD9; uM 0.52288,4.553 and 4.659 and 4.5888
same,"BRET, CBH-002 + DMSO",BRD9; uM 1,11.9924 and 12.071 and 11.0213
same,"BRET, CBH-002 + GSK3326595",BRD9; uM 1,12.0831 and 11.2046 and 11.118
same,"BRET, CBH-002 + DMSO",BRD9; uM -0.43136,0.6619 and 0.5821 and 0.5347
same,"BRET, CBH-002 + GSK3326595",BRD9; uM -0.43136,0.7878 and 0.6009 and 0.5811
same,CBH-002 engagement at BRD9 (printed BDR9),"BRD9; HEK293, NL-BRD9",did not show engagement
